From the supplement of paper PMC10307832

Legend:
Assay in all cases: relative viability (nuclei count vs DMSO), 5 days (fraction); higher = more cells survive
Sulindac + Olaparib = compound: CC1=C(CC(=O)O)c2cc(F)ccc2/C1=C\c1ccc([S+](C)[O-])cc1 [Sulindac] + O=C(c1cc(Cc2n[nH]c(=O)c3ccccc23)ccc1F)N1CCN(C(=O)C2CC2)CC1 [Olaparib] (partner 8 µM)
In short: (§1)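 Lung cancer cell lines were seeded in 1536-well plates and dosed by pin tool the next day, with either a single drug or a fixed anchor-drug dose combined with five library-drug doses (not always all listed) spaced in √10 steps. Five days later, one step fixed the cells and stained their nuclei (final 0.05% Triton X-100, 1% formaldehyde, 1 ug/ml Hoechst), and nuclei were counted on 4× images. Relative viability is the nuclei count in treated wells divided by the count in vehicle wells, and each value is the median of duplicate plates.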

[1] = compound: CN[C@@H]1C[C@H]2O[C@@](C)([C@@H]1OC)n1c3ccccc3c3c4c(c5c6ccccc6n2c5c31)C(=O)NC4 [Staurosporine] + CC(=O)c1c(C)c2cnc(Nc3ccc(N4CCNCC4)cn3)nc2n(C2CCCC2)c1=O [Palbociclib] (partner 0.5 µM)
In short: as §1

[2] = compound: CN[C@@H]1C[C@H]2O[C@@](C)([C@@H]1OC)n1c3ccccc3c3c4c(c5c6ccccc6n2c5c31)C(=O)NC4 [Staurosporine] + COc1cc2c(Oc3ccc(NC(=O)C4(C(=O)Nc5ccc(F)cc5)CC4)cc3F)ccnc2cc1OCCCN1CCOCC1 [Foretinib] (partner 0.25 µM)
In short: as §1

[3] = compound: O=c1[nH]cc(F)c(=O)[nH]1 [5-Fluorouracil] + Nc1ncn([C@H]2C[C@H](O)[C@@H](CO)O2)c(=O)n1 [Decitabine] (partner 2 µM)
In short: as §1

Cell Line	relative viability (Sulindac + Olaparib; first compound 0.08 µM)	relative viability (Sulindac + Olaparib; first compound 0.253 µM)	relative viability (Sulindac + Olaparib; first compound 0.8 µM)	relative viability (Sulindac + Olaparib; first compound 2.53 µM)	relative viability (Sulindac + Olaparib; first compound 8 µM)	relative viability ([1]; first compound 0.005 µM)	relative viability ([1]; first compound 0.01581 µM)	relative viability ([1]; first compound 0.05 µM)	relative viability ([1]; first compound 0.1581 µM)	relative viability ([1]; first compound 0.5 µM)	relative viability ([2]; first compound 0.005 µM)	relative viability ([2]; first compound 0.01581 µM)	relative viability ([2]; first compound 0.05 µM)	relative viability ([2]; first compound 0.1581 µM)	relative viability ([2]; first compound 0.5 µM)	relative viability ([3]; first compound 0.02 µM)	relative viability ([3]; first compound 0.2 µM)	relative viability ([3]; first compound 0.6325 µM)	relative viability ([3]; first compound 2 µM)
NCI-H322M	0.674	0.772	0.742	0.837	0.87	0.476	0.386	0.388	0.433	0.467	0.95	0.759	0.536	0.357	0.288	0.638	0.616	0.774	0.676
NCI-H358	0.809	0.667	0.526	0.573	0.62	0.107	0.081	0.102	0.0861	0.0814	0.835	0.241	0.11	0.0647	0.0577	0.187	0.224	0.214	0.225
NCI-H441	0.514	0.537	0.442	0.476	0.624	0.161	0.12	0.118	0.114	0.112	0.822	0.503	0.354	0.215	0.194	0.252	0.226	0.254	0.26
NCI-H460	0.579	0.417	0.432	0.342	0.635	0.0657	0.0441	0.0429	0.0284	0.0184	0.972	0.85	0.755	0.161	0.013	0.484	0.38	0.111	0.0586
NCI-H520	0.36	0.328	0.302	0.313	0.283	0.272	0.262	0.159	0.116	0.12	0.692	0.759	0.548	0.409	0.18	0.505	0.556	0.479	0.552
NCI-H647	0.689	0.577	0.346	0.398	0.785	0.239	–	0.0896	0.0475	0.0477	0.886	0.709	0.535	0.143	0.0766	0.367	0.383	0.39	0.391
NCI-H650	0.442	0.431	0.341	0.425	0.472	0.262	0.208	0.224	0.234	0.199	0.687	0.273	0.257	0.289	0.256	0.313	0.312	0.326	0.288
NCI-H661	0.971	0.789	0.59	0.742	0.836	0.418	0.337	0.329	0.26	0.192	1.13	0.571	0.481	0.27	0.216	0.574	0.596	0.495	0.551
NCI-H727	0.588	0.519	0.648	0.769	0.707	0.649	0.557	0.5	0.447	0.443	0.652	0.542	0.428	0.37	0.29	0.844	0.996	0.822	0.844
NCI-H838	0.941	0.798	0.65	0.809	0.914	0.151	0.138	0.151	0.121	0.0855	0.51	0.228	0.208	0.185	0.0995	0.48	0.447	0.359	0.291
NCI-H1355	0.704	0.691	0.679	0.66	0.759	0.411	0.3	0.214	0.188	0.161	0.963	0.415	0.468	0.221	0.221	0.332	0.332	0.26	0.245
NCI-H1395	0.43	0.424	0.467	0.45	0.483	0.53	0.438	0.406	0.393	0.306	0.943	0.812	0.453	0.416	0.27	0.802	0.781	0.771	0.736
NCI-H1437	0.748	0.679	0.503	0.638	0.665	0.27	0.182	0.168	0.116	–	1.13	–	0.854	0.58	0.169	0.522	0.308	0.28	0.237
NCI-H1650	0.827	0.723	0.705	0.742	0.757	0.238	0.138	0.147	0.118	0.0769	0.927	0.586	0.201	0.216	0.133	0.573	0.473	0.348	0.271
NCI-H1651	0.17	0.189	0.162	0.177	0.169	0.497	0.471	0.318	0.313	0.249	0.74	0.615	0.346	0.259	0.0644	0.598	0.613	0.321	0.264
NCI-H1666	0.705	0.741	0.674	0.734	0.774	0.63	0.555	0.679	0.482	0.462	0.668	0.513	0.545	0.391	0.359	0.706	0.564	0.534	0.502
NCI-H1734	0.634	0.67	0.609	0.649	0.674	0.332	0.204	0.202	0.16	0.147	0.577	0.453	0.317	0.137	0.156	0.536	0.518	0.499	0.396
